Measurements from PMC12935787, “Clinical pharmacokinetics and pharmacometabolomics of Andrographis paniculata capsules: Bridging drug disposition and metabolic response to precision medicine” (Naunyn-Schmiedeberg's Archives of Pharmacology, 2025).
Read-outs that look alike come from different tables or passages of the source.

Test: Clinical pharmacokinetics, plasma LC-MS/MS after single oral dose of AP capsules
Type: in vivo, human (healthy volunteers)
Conditions: human, plasma; for concentration at 0 h / concentration at 0.5 h / concentration at 1 h / concentration at 1.5 h / concentration at 2 h / concentration at 2.5 h / concentration at 3 h / concentration at 3.5 h / concentration at 4 h / concentration at 5 h / concentration at 6 h / concentration at 8 h / concentration at 10 h / concentration at 12 h / concentration at 24 h: oral, 2000 mg, 2000 mg AP capsules; for concentration at 0.5 h: 0.50 h; for concentration at 1.5 h: 1.50 h; for concentration at 2.5 h: 2.50 h; for concentration at 3.5 h: 3.50 h
Procedure: The protocol was published (Tee et al. [2022]).
Seven calibrators ranging from 1, 2, 5,10, 20, 50, and 100 ng mL^−1 were prepared. Frozen plasma was thawed, vortexed-mixes, and processed via protein precipitation: 50 µL plasma plus 100 µL 0.01% ammonia in methanol were vortexed (20 s), centrifuged (14800 rpm, 5 min) and […] supernatant was transferred to 2 mL vials with inserts. LC–MS/MS injection volume: 10 µL. The separation used a Phenomenex Gemini-NX C18 column (150 × 2.1 mm, 5 μm) with 0.01% ammonia (A) and acetonitrile/methanol (1:1, B) as mobile phases (0.30 mL min^-1). The gradient program: 40% B (0 min), linear increase to 95% B (3 min), hold to 5 min, sharp decrease to 10% B (5.01 min), hold to 7 min, return to 40% B (7.01 min), and re-equilibration to 10 min. Mass detection employed an LCMS-8060NX triple quadrupole with heated ESI in negative mode, monitoring specific MRM transitions: andrographolide (349.3 → 331.2/287.1), 14-deoxyandrographolide (331.2 → 108.0/301.1), and neoandrographolide (479.1 → 317.4/161.1).
Pharmacokinetic parameters were determined from plasma samples (5 subjects, 15 time points) analyzed via LC–MS/MS (Shimadzu 8060NX). […] Specific MRM transitions for andrographolide, 14-deoxyandrographolide, and neoandrographolide in plasma samples of subjects are illustrated in Figure S3. […] The dose-dependent concentration–time curves, pharmacokinetics profiles (Fig. 2a, b and c) and comprehensive individual PK data (Table S4) provide a foundation for developing personalized AP dosing regimens, supporting its precision medicine potential.

[1] = S1, read-out: Plasma concentration
[2] = S2, read-out: Plasma concentration
[3] = S3, read-out: Plasma concentration
[4] = S4, read-out: Plasma concentration
[5] = S5, read-out: Plasma concentration
[6] = mean n=5, read-out: Mean concentration
[7] = 2000 mg AP capsules oral, fasting, n=5

Compound: C=C1CC[C@@H]2[C@](C)(CO)[C@H](O)CC[C@@]2(C)[C@@H]1CCC1=CCOC1=O [14-deoxyandrographolide]
- concentration at 0 h [1]: 0 ng/mL
- concentration at 0.5 h [1]: 4.67 ng/mL
- concentration at 1 h [1]: 2.88 ng/mL
- concentration at 1.5 h [1]: 7.71 ng/mL
- concentration at 2 h [1]: 5.18 ng/mL
- concentration at 2.5 h [1]: 3.32 ng/mL
- concentration at 3 h [1]: 6.06 ng/mL
- concentration at 3.5 h [1]: 3.78 ng/mL
- concentration at 4 h [1]: 0 ng/mL
- concentration at 5 h [1]: 0 ng/mL
- concentration at 6 h [1]: 0 ng/mL
- concentration at 8 h [1]: 0 ng/mL
- concentration at 10 h [1]: 0 ng/mL
- concentration at 12 h [1]: 0 ng/mL
- concentration at 24 h [1]: 0 ng/mL
- concentration at 0 h [2]: 0 ng/mL
- concentration at 0.5 h [2]: 0 ng/mL
- concentration at 1 h [2]: 4.36 ng/mL
- concentration at 1.5 h [2]: 4.51 ng/mL
- concentration at 2 h [2]: 3.4 ng/mL
- concentration at 2.5 h [2]: 2.73 ng/mL
- concentration at 3 h [2]: 4.33 ng/mL
- concentration at 3.5 h [2]: 0 ng/mL
- concentration at 4 h [2]: 0 ng/mL
- concentration at 5 h [2]: 0 ng/mL
- concentration at 6 h [2]: 0 ng/mL
- concentration at 8 h [2]: 0 ng/mL
- concentration at 10 h [2]: 0 ng/mL
- concentration at 12 h [2]: 0 ng/mL
- concentration at 24 h [2]: 0 ng/mL
- concentration at 0 h [3]: 0 ng/mL
- concentration at 0.5 h [3]: 23.4 ng/mL
- concentration at 1 h [3]: 10.1 ng/mL
- concentration at 1.5 h [3]: 6.33 ng/mL
- concentration at 2 h [3]: 3.06 ng/mL
- concentration at 2.5 h [3]: 2.52 ng/mL
- concentration at 3 h [3]: 1.77 ng/mL
- concentration at 3.5 h [3]: 0 ng/mL
- concentration at 4 h [3]: 0 ng/mL
- concentration at 5 h [3]: 2.59 ng/mL
- concentration at 6 h [3]: 0 ng/mL
- concentration at 8 h [3]: 0 ng/mL
- concentration at 10 h [3]: 0 ng/mL
- concentration at 12 h [3]: 0 ng/mL
- concentration at 24 h [3]: 0 ng/mL
- concentration at 0 h [4]: 0 ng/mL
- concentration at 0.5 h [4]: 1.49 ng/mL
- concentration at 1 h [4]: 10 ng/mL
- concentration at 1.5 h [4]: 13.2 ng/mL
- concentration at 2 h [4]: 4.7 ng/mL
- concentration at 2.5 h [4]: 5.46 ng/mL
- concentration at 3 h [4]: 1.92 ng/mL
- concentration at 3.5 h [4]: 2.29 ng/mL
- concentration at 4 h [4]: 1.69 ng/mL
- concentration at 5 h [4]: 1.8 ng/mL
- concentration at 6 h [4]: 2.01 ng/mL
- concentration at 8 h [4]: 2.47 ng/mL
- concentration at 10 h [4]: 0 ng/mL
- concentration at 12 h [4]: 0 ng/mL
- concentration at 24 h [4]: 0 ng/mL
- concentration at 0 h [5]: 0 ng/mL
- concentration at 0.5 h [5]: 3.04 ng/mL
- concentration at 1 h [5]: 2.29 ng/mL
- concentration at 1.5 h [5]: 3.39 ng/mL
- concentration at 2 h [5]: 4.99 ng/mL
- concentration at 2.5 h [5]: 3.66 ng/mL
- concentration at 3 h [5]: 3.28 ng/mL
- concentration at 3.5 h [5]: 2.09 ng/mL
- concentration at 4 h [5]: 1.36 ng/mL
- concentration at 5 h [5]: 2.4 ng/mL
- concentration at 6 h [5]: 1.7 ng/mL
- concentration at 8 h [5]: 0 ng/mL
- concentration at 10 h [5]: 0 ng/mL
- concentration at 12 h [5]: 0 ng/mL
- concentration at 24 h [5]: 0 ng/mL
- concentration at 0 h [6]: 0 ng/mL
- concentration at 0.5 h [6]: 6.52 ng/mL
- concentration at 1 h [6]: 5.94 ng/mL
- concentration at 1.5 h [6]: 7.02 ng/mL
- concentration at 2 h [6]: 4.27 ng/mL
- concentration at 2.5 h [6]: 3.54 ng/mL
- concentration at 3 h [6]: 3.47 ng/mL
- concentration at 3.5 h [6]: 1.63 ng/mL
- concentration at 4 h [6]: 0.61 ng/mL
- concentration at 5 h [6]: 1.36 ng/mL
- concentration at 6 h [6]: 0.74 ng/mL
- concentration at 8 h [6]: 0.49 ng/mL
- concentration at 10 h [6]: 0 ng/mL
- concentration at 12 h [6]: 0 ng/mL
- concentration at 24 h [6]: 0 ng/mL
- AUC(0-inf) [7]: 21.2 ng·h/mL
- AUC(0-t) [7]: 19.6 ng·h/mL
- Cmax [7]: 7.02 ng/mL
- half-life [7]: 2.18 h
